Experimental data from article PMC8389922, “First-in-Class Cyclic Temporin L Analogue: Design, Synthesis, and Antimicrobial Assessment” (Journal of Medicinal Chemistry, 2021).
Values after ≈ are worked out from the molar mass of the structure shown. Square brackets hold non-standard residues; d marks the D form. Peptide text beside a SMILES is read from it.

What was measured:
[1] = tested on: S. epidermidis ATCC 12228; type: cell-based, Staphylococcus epidermidis
Procedure: (§1) The antimicrobial activity of peptides 9–26 was assessed against a range of reference bacterial strains such as S. aureus ATCC 25923, Staphylococcus epidermidis ATCC 12228, Bacillus megaterium Bm11, E. coli ATCC 25922, P. aeruginosa ATCC 27853, and A. baumannii ATCC 19606 by the broth microdilution assay to determine the minimal growth inhibitory concentration (MIC, Table 1).[59] First, we evaluated the effects produced by the lactam bridge between Lys and Glu residues placed at different positions along the peptide sequence of reference 9. […] When the i,i+7 cyclization strategy was applied (20–23), a dramatic decrease of bacterial inhibition activity was observed. Specifically, the peptides 20, 22, and 23 only affected the microbial growth of the Gram-positive B. megaterium Bm11, at 12.5 μM. […] Peptide 25, which differs from 9 by the presence of an olefin bridge rather than lactam one, dramatically lost the activity (MIC > 100 μM) vs both Gram-positive and Gram-negative strains.
(§2) The determination of MICs was conducted as previously reported.[61] Aliquots of 50 μL of bacterial culture appropriately diluted were added to each well of a 96-well plate to reach a final cell density of 1 × 10^6 CFU/mL and a final peptide concentration ranging from 100 to 0.78 μM (final volume 100 μL).

circular dichroism = conditions: water; pH ns; 25 °C; 50 uM
P. aeruginosa ATCC 27853 = type: cell-based, Pseudomonas aeruginosa
Procedure: as §1, §2

[2] = 90% fresh human serum (male AB plasma), 37 ± 1 °C, peptide 0.2 mM, MeCN precipitation, RP-UHPLC peak area at 220 nm, triplicate
Procedure: (§5) Peptides were incubated with 90% fresh human serum at 37 ± 1 °C within 12 h.[69] The percentage of intact peptide was monitored by calculating the peak area of the chromatogram from RP-HPLC analysis.
(§6) The peptide was incubated in a 1.5 mL eppendorf tube with human serum at a final concentration of 0.2 mM, and the mixture was incubated at 37 ± 1 °C for different periods (0.25, 0.75, 1.5, 2, 3, 4, 6, 7, 8, and 12 h). After the incubation period, an aliquot of reaction solution was taken and added MeCN (double volume respect to the aliquot) for the precipitation of serum proteins present in human serum. The produced cloudy solution was cooled (4 °C) for 15 min and then centrifuged at 13 000 rpm for 10 min to remove the serum protein as pellet. Then, the supernatant was analyzed by RP-UHPLC using a linear elution gradient from 10 to 90% MeCN (0.1% TFA) in water (0.1% TFA) over 20 min. A flow rate of 1 mL/min was employed, and the absorbance of the eluting peaks was detected at 220 nm. The proteolytic stability assay was repeated in triplicate.

S. aureus ATCC 25923 = type: cell-based, Staphylococcus aureus
Procedure: as §1, §2

A. baumannii ATCC 19606 = type: cell-based, Acinetobacter baumannii
Procedure: as §1, §2

E. coli ATCC 25922 = type: cell-based, Escherichia coli
Procedure: as §1, §2

in vitro = conditions: male, human, 90% fresh human serum
Procedure: as §5, §6

[3] = tested on: S. aureus ATCC 43300, a methicillin-resistant strain (MRSA); type: cell-based, Staphylococcus aureus
Procedure: Thus, 12 was further tested against S. aureus ATCC 43300, a methicillin-resistant strain (MRSA), and compared with the linear precursor 9. […] No growth was observed after 24 h. Peptide 9 was bactericidal as well, by killing MRSA within 10 min, but at a higher concentration (25 μM).
The bacterial strains used in the antimicrobial assays were the Gram-negative E. coli ATCC 25922, P. aeruginosa ATCC 27853, A. baumannii ATCC 19606, the Gram-positive S. aureus ATCC 25923, S. epidermidis ATCC 12228, and B. megaterium Bm11. Methicillin-resistant S. aureus (MRSA) ATCC 43300 was obtained from Culture Collection Center of School of Basic Medical Sciences of Lanzhou University (China).
as §2

B. megaterium Bm11 = type: cell-based, Bacillus megaterium
Procedure: as §1, §2

[4] = tested on: preformed biofilm of S. aureus ATCC 25923; conditions: ATCC 25923, 20 h
Procedure: (§3) Biofilm viability was determined as indicated in the Materials and General Procedures section and expressed as a percentage compared to that of untreated samples (100%). Values are the mean of at least three replicates ± SEM. Data are considered to be statistically significant as follows: *p < 0.05; ***p < 0.001; ****p < 0.0001. Biofilm eradication concentration 90, BEC90, was defined as the concentration able to reduce at least 90% of biofilm cells. TEXT PRINTED IN THE PICTURE: 9: S. aureus ATCC 25923: BEC90 = 25 μM; A. baumannii ATCC 19606: BEC90 > 100 μM | 12: S. aureus ATCC 25923: BEC90 = 12.5 μM; A. baumannii ATCC 19606: BEC90 = 25 μM
(§4) Preformed biofilms of S. aureus ATCC 25923 and A. baumannii ATCC 19606 were obtained as previously reported.[77] Microbial cultures were grown in Luria-Bertani broth (LB) at 37 °C to an optical density (OD) of 0.8 (λ = 590 nm) and then diluted in LB to a cell density of 1 × 10^6 colony-forming units (CFUs)/mL. Aliquots of 100 μL were dispensed into the wells of a 96-well plate, which was incubated for 20 h at 37 °C to allow biofilm formation. The medium containing planktonic cells was then aspirated from the wells and washed twice with 150 μL of phosphate-buffered saline (PBS) to remove any nonadherent cells. […] After treatment, each well was rinsed twice with PBS, as previously described. Then, 150 μL of MTT solution (0.5 mg/mL) were added to each well to evaluate biofilm cell viability. The plates were incubated at 37 °C for 4 h in the dark, and the reaction was stopped by adding sodium dodecyl sulfate (SDS) (at a final concentration of 5% v/v). The absorbance of each well was recorded at 570 nm using a microplate reader (Infinite M200; Tecan, Salzburg, Austria), and the percentage of biofilm cells viability was calculated with respect to the untreated samples (100%).

[5] = tested on: preformed biofilm of A. baumannii ATCC 19606; conditions: ATCC 19606, 20 h
Procedure: as §3, §4

FtsZ protein = conditions: E. coli divisome; cited from earlier work
From the text: Temporins are AMPs and belong to the group of host defense peptides (HDP), originally isolated from the amphibian skin secretions of the […] Rana temporaria.[29] Their sequences are composed of 10–14 amino acids, amidated at the C-terminus. In hydrophobic environments, temporins fold into an amphipathic α-helix that, along with their cationic nature at physiological pH (from +2 to +3), is accountable for their biological behavior.

Row | Molecule | MIC S. epidermidis ATCC 12228 [1] [µM] | helicity (circular dichroism) [%] | MIC P. aeruginosa ATCC 27853 (P. aeruginosa ATCC 27853) [µM] | time to complete degradation in human serum [2] [h] | MIC S. aureus ATCC 25923 (S. aureus ATCC 25923) [µM] | MIC A. baumannii ATCC 19606 (A. baumannii ATCC 19606) [µM] | MIC E. coli ATCC 25922 (E. coli ATCC 25922) [µM] | metabolised at 0.75 h, 0.2 mM (in vitro) [%] | MIC S. aureus ATCC 43300 (MRSA) [3] [µM] | MIC B. megaterium Bm11 (B. megaterium Bm11) [µM] | Biofilm Eradication Concentration 90 (BEC90) S. aureus ATCC 25923 [4] [µM] | Biofilm Eradication Concentration 90 (BEC90) A. baumannii ATCC 19606 [5] [µM] | Kd (FtsZ protein) [nM]
1 | CC[C@H](C)[C@H](NC(=O)[C@H](CCCNC(=N)N)NC(=O)CNC(=O)[C@@H](CC(C)C)NC(=O)[C@H](Cc1ccccc1)NC(=O)[C@H](CCCCN)NC(=O)[C@H](CO)NC(=O)[C@H](Cc1ccccc1)NC(=O)[C@H](Cc1c[nH]c2ccccc12)NC(=O)[C@@H]1CCCN1C(=O)[C@@H](NC(=O)[C@@H](N)Cc1ccccc1)C(C)C)C(=O)N[C@@H](CC(C)C)C(N)=O [compound 9, [Pro^3,DLeu^9]TL, reference compound] (H-FVPWFSKF[dL]GRIL-NH2) | 6.25 (≈ 10.1 µg/mL) | 3 | 50 (≈ 80.5 µg/mL) | ≤ 6 | 6.25 (≈ 10.1 µg/mL) | 6.25 (≈ 10.1 µg/mL) | 12.5 (≈ 20.1 µg/mL) | ~40 | 25 (≈ 40.2 µg/mL) | 1.56 (≈ 2.51 µg/mL) | 25 | > 100 | –
2 | FVQWFSKFLGRIL [compound 7, Temporin L] | – | – | – | – | – | – | – | – | – | – | – | – | 17.4 ± 0.8
